According to patent US20250255968A1, “INTRAVAGINAL DEVICES FOR DRUG DELIVERY” (priority 2011, published 2025):
Structures can show the parent of a compound that is named as a salt. Blank lines part the entries; values can stand above or below the compound they belong to.

Legend:
Type in all cases: physicochemical
[1] = In vitro release of EVG, DPV and TFV from hydrophilic polyurethane tubing reservoir rings; conditions: for TFV steady-state release rate: in presence of DPV or EVG
From the text: Elvitegravir (EVG), TFV, and glycerol (63/5/32 wt % TFV/EVG/glycerol-water, where glycerol was premixed as a 33/2 wt % stock solution) was loaded into the lumen of 35 wt % swelling hydrophilic polyurethane single-segment tubing with 5.5 mm cross-sectional diameter and 0.7 mm wall thickness. […] Similarly, dapivirine (DPV) was formulated in various equilibrium swelling hydrophilic polyurethane tubing lumens (all with 5.5 mm cross-sectional diameter and 0.7 mm wall thickness) at 63/5/32 wt % TFV/DPV/glycerol-water (mean±SD, N=5). […] Both DPV and EVG rings described above were tested for in vitro release immediately after ring fabrication. It is known from above examples, as well as previously published work that amphiphilic and lipophilic compounds including DPV often are soluble in polyurethanes up to 20 wt %. Therefore, a ring delivering hydrophobic APIs, such as EVG or DPV, should show little or no lag time in releasing the drug after adequate storage time, since the API should partition into the tubing wall on ring storage. TFV release from HTPU 35 and 60% swelling rings was not noticeably affected by the presence of DPV and EVG (TFV steady-state release rates were approximately 13 and 22 mg/day, respectively).

[2] = In vitro release of IQP-0528 from hydrophobic tubing IVR; conditions: for 30 days; core 48 wt % drug/52 wt % glycerol in Tecoflex EG85A tubing preloaded with 4.7 wt % drug
From the text: An IVR as described in Examples 1, 2, 3, and 9 is manufactured by premixing hydrophobic small molecule API (such as IQP-0528, UC-781, or levonorgestrel) with non-swellable polymer (such as Tecoflex®) and titanium dioxide. The tubing is then extruded as described above using a single screw extruder and tubing crosshead. The tubing may or may not incorporate reinforced/braided tubing or metallic springs to mechanically support the wall. The tubing is then filled with the API and excipient(s) mixture and joined to make a ring as described above. […] The core is composed of 48 wt % drug and 52 wt % glycerol paste filled in a hydrophobic tubing (Tecoflex® EG85A) preloaded with 4.7 wt % drug. In this example, approximately 600 μg of IQP-0528 was released daily for 30 days.

[3] = TDF release from HydroThane IVR after storage at elevated temperature
Procedure: As a means of diminishing or eliminating API release lag-time, devices may be stored at elevated temperature ranging from 40° C. to 70° C., depending on drug stability, for a predetermined amount of time to accelerate diffusion of the API from the tubing lumen to the tubing wall. After a predetermined time/temperature storage, the API loading in the device wall be equilibrated and the device will show minimal or no lag-time in drug release. This approach works for APIs which show some solubility in the rate-controlling polymer. Also, in certain instances this approach may negate the need for an osmotic agent. […] The IVRs are incubated at elevated temperatures, for example 65° C. for 5 days. […] This minimal amount of TDF in tubing wall reduced the lag time for equilibrium drug release and about 2-3 mg of TDF was delivered on days 1-3.

[4] = In vitro tenofovir release from single-segment reservoir IVR (HPLC); conditions: 35 wt % swelling Tecophilic HP-60D tubing IVR, TFV/glycerol 70/30 wt % core; pH 4.2 sodium acetate buffer, 37° C., 80 rpm
Procedure: (§1) In vitro tenofovir (TFV) release and IVR mechanical studies were conducted to evaluate device performance. IVRs were incubated in pH 4.2 sodium acetate buffer and placed in a 37° C., 80 rpm shaker for up to 120 days. Sink conditions were maintained throughout the entire experiment, and release media was changed daily. Quantification of amount of TFV released was determined using high performance liquid chromatography (HPLC) (aqueous mobile phase gradient method on reverse phase C18 column, Agilent 1200 series HPLC). Mechanical properties of the rings over time were measured by compressing rings 25% of their initial outer diameter at a rate of 1 mm/sec using an Instron 3342 mechanical testing system (Norwood, MA) with custom machined aluminum probe. The TFV release rapidly attained steady-state, and release was dependent on polymer equilibrium swelling. The 35 wt % polymer was able to maintain steady-state release through 105 days. Also, the ring mechanical properties changed little with time, even after all drug was released. (See FIG. 2.)

[5] = In vitro TFV release from IVR with drug-impregnated polymeric core; conditions: HPU 60/TFV (40% w/w) core jacketed with HPU 20/TFV (5% w/w); sodium acetate buffer pH 4.2, 37° C., 77 days, after initial burst
From the text: The HPU 20/TFV was used to jacket HPU 60/TFV using a twin-screw extruder and crosshead die. Reservoir rods were cut to approximately 14 cm sections, of which the ends were joined using an O-ring butt-welding clamp and medical grade Tecoflex® 1-MP fast-crystallization polyurethane adhesive, (200-300 cps viscosity, solution of polyurethane based polymer in methyl ethyl ketone and methylene chloride) resulting in a ring with 50-60 mm outer diameter and 5-6 mm outer cross-sectional diameter. […] Several of these IVRs were incubated at 37° C. and in sodium acetate buffer (pH 4.2) for 77 days. Sink conditions were maintained throughout the entire experiment. […] (See FIG. 5.)

[6] = In vitro drug release testing of dual-segment TFV/LNG IVR in aqueous buffer sink; conditions: hydrophilic tubing reservoir segment of dual-segment IVR
Procedure: Example 29B. In a further example, a TFV/glycerol/water (65/33/2 wt %) semi-solid paste was loaded into the hydrophilic tubing reservoir segment and LNG was dissolved in the hydrophobic solid core reservoir segment of a dual segment IVR made according to Example 29A (using similar polyurethane tubing). The resulting IVR was subjected to in vitro drug release testing in an aqueous buffer sink for 90 days.

[7] = In vitro TFV release from Tecophilic HP-60D-35 IVR with or without osmotic agent glycerol
Procedure: as §1

EVG release rate ([1]; for 28 days, unstored rings, 35 wt % swelling hydrophilic polyurethane tubing, 63/5/32 wt % TFV/EVG/glycerol-water): over 300 μg/day
EVG lag time ([1]; unstored rings, 35 wt % swelling hydrophilic polyurethane tubing): several-day lag time
SMILES: COc1cc2c(cc1Cc1cccc(Cl)c1F)c(=O)c(C(=O)O)cn2[C@H](CO)C(C)C [EVG, Elvitegravir]

duration of maintained steady-state TFV release [4]: 105 days
TFV release profile [5]: zero-order fashion
lag period before zero-order TFV release [6]: 1 days
TFV release profile ([6]; TFV/glycerol/water 65/33/2 wt % paste, 90 days): Zero-order release
time to steady state TFV release rate ([7]; 65/33/2 wt % TFV/glycerol/water paste (glycerol 33 wt %)): ≤ 3 days
time to steady state TFV release rate ([7]; 100% TFV powder in the core): > 28 days
TFV steady-state release rate ([1]; HTPU 35% swelling rings): approximately 13 mg/day
TFV steady-state release rate ([1]; HTPU 60% swelling rings): ~22 mg/day
SMILES: C[C@H](Cn1cnc2c(N)ncnc21)OCP(=O)(O)O [TFV, ({[(2R)-1-(6-amino-9H-purin-9-yl)propan-2-yl]oxy}methyl)phosphonic acid]

Further lines, the compound ahead of its results:

SMILES: Cc1cc(C)c(Nc2ccnc(Nc3ccc(C#N)cc3)n2)c(C)c1 [DPV, dapivirine]
DPV lag time ([1]; various hydrophilic polyurethane rings, tested immediately after fabrication): approximately two weeks

SMILES: Cc1cc(C)cc(C(=O)c2c(C(C)C)c(=O)[nH]c(=O)n2CC2CC2)c1 [IQP-0528]
IQP-0528 released daily [2]: approximately 600 μg

SMILES: CC(C)OC(=O)OCOP(=O)(CO[C@H](C)Cn1cnc2c(N)ncnc21)OCOC(=O)OC(C)C [TDF, tenofovir disoproxil fumarate]
TDF concentration in tubing wall ([3]; HydroThane 25-93A IVR, TDF + sodium chloride (15 wt % of TDF), incubated 65° C. for 5 days): 5 mg/g polymer
TDF delivered ([3]; on days 1-3, after 65° C. storage for 5 days): 2 to 3 mg
